Measured values from patent US8486996B2, “Aroylfuranes and aroylthiophenes” (Basilea Pharmaceutica AG, priority 2006, dated 2013).
pEC50, pIC50: −log10 of the molar value. Read-outs that look alike come from different tables or passages of the source.

How the values were obtained:
H460 = experiment: Colony Forming Units (read-out 6 days), H460; type: cell-based, human; details: colonies containing more than 30 cells, read-out: Colony Forming Units, score based on IC50, H460
Method: (§1) Appropriate numbers of cells (100-150 cells, dependent on the cell type) are being seeded out in 1 ml complete medium into 6-well plates and allowed to attach for 48 h. The compounds are added after 48 h in 500 μl solution. The concentrations are in the range of 0.001 μM-3 μM. Control plates receive the same volume of medium containing the appropriate amount of DMSO. The plates are incubated for 5-7 days at cell culture conditions and subsequently scored for growth of colonies (containing more than 30 cells) by using a microscope.

tumor cells [1] = experiment: Mitochondrial membrane potential, JC-1 (read-out 48 h); type: cell-based; details: JC-1, 48 h
Summary of the method: (§2)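 Tumor cells were treated with test compounds (adherent cells after 24 h of attachment, suspension cells immediately), medium holding up to 5% DMSO. After 48 h, JC-1 (2-5 μg/ml in added medium) was applied for 30 min. Fluorescence microscopy (FITC/TRITC filters) scored the fraction of cells with dissipated mitochondrial membrane potential as categories A-D.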

[2] = as above; type: cell-based; details: PBL, JC-1, 48 h
Summary of the method: as §2

tumor cells [3] = experiment: Hoechst 33342 nuclear staining (48 h read-out); type: cell-based
Summary of the method: (§3)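 Adherent cells pre-spread 24 h before dosing, suspension cells dosed at seeding; compounds at 0.001 μM-10 μM final, 48 h at culture conditions. Hoechst 33342 (2-5 μg/ml) added for 30 min, then fluorescence microscopy scoring of apoptotic nuclear fraction and apoptosis-specific morphology, reported as scores A-D.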

[4] = Hoechst 33342 nuclear staining (48 h read-out); type: cell-based
Summary of the method: as §3

HeLa = experiment: Colony Forming Units (read-out 6 days), HeLa; type: cell-based, human; details: colonies containing more than 30 cells, read-out: Colony Forming Units, score based on IC50, HeLa
Method: as §1

tumor cells [5] = experiment: MTS proliferation assay (72 h read-out); type: cell-based
Summary of the method: (§4)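 Viability was read by MTS absorbance at 492 nm after 3 h with reagent. Before that, cells plated a day earlier at 1.5×10^3–10^4 per well had been incubated with test compound at final concentrations of 0.001–10 μM for 72 h; activity is given as category scores A–D.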

[6] = MTS proliferation assay (72 h read-out); type: cell-based; details: MRC5 cells
Summary of the method: as §4

[7] = HeLa cells, read-out: Mitochondrial membrane potential (read-out 48 h) HeLa
[8] = Jily cells, read-out: Mitochondrial membrane potential (read-out 48 h) Jily
[9] = Jurkat cells, read-out: Mitochondrial membrane potential (read-out 48 h) Jurkat
[10] = MCF7 cells, read-out: Mitochondrial membrane potential (read-out 48 h) MCF7
[11] = HeLa cells, read-out: Hoechst 33342 nuclear staining EC50, HeLa
[12] = Jily cells, read-out: Hoechst 33342 nuclear staining EC50, Jily
[13] = Jurkat cells, read-out: Hoechst 33342 nuclear staining EC50, Jurkat
[14] = MRC5 cells, read-out: Hoechst 33342 nuclear staining EC50, MRC5
[15] = PBL, read-out: Hoechst 33342 nuclear staining EC50, PBL
[16] = Homo sapiens, HT-1080, HT1080 cells, read-out: MTS proliferation assay IC50, HT1080
[17] = Homo sapiens, HeLa cells, read-out: MTS proliferation assay IC50, HeLa
[18] = Homo sapiens, Jurkat cells, read-out: MTS proliferation assay IC50, Jurkat
[19] = Jily cells, read-out: MTS proliferation assay IC50, Jily
[20] = Homo sapiens, HeLa cells, read-out: Mitochondrial membrane potential (read-out 48 h) HeLa
[21] = Homo sapiens, Jurkat cells, read-out: Mitochondrial membrane potential (read-out 48 h) Jurkat
[22] = Homo sapiens, MCF7 cells, read-out: Mitochondrial membrane potential (read-out 48 h) MCF7
[23] = Homo sapiens, HeLa cells, read-out: Hoechst 33342 nuclear staining EC50, HeLa
[24] = Homo sapiens, Jurkat cells, read-out: Hoechst 33342 nuclear staining EC50, Jurkat
[25] = Homo sapiens, MRC5 cells, read-out: Hoechst 33342 nuclear staining EC50, MRC5
[26] = HT1080 cells, read-out: MTS proliferation assay IC50, HT1080
[27] = HeLa cells, read-out: MTS proliferation assay IC50, HeLa
[28] = Jurkat cells, read-out: MTS proliferation assay IC50, Jurkat

pEC50 (tumor cells [1]; [7]) | pEC50 (tumor cells [1]; [8]) | pEC50 (tumor cells [1]; [9]) | pEC50 (tumor cells [1]; [10]) | pEC50 [2] | pEC50 (tumor cells [3]; [11]) | pEC50 (tumor cells [3]; [12]) | pEC50 (tumor cells [3]; [13]) | pEC50 [4, 15] | pIC50 (tumor cells [5]; [16]) | pIC50 (tumor cells [5]; [17]) | pIC50 (tumor cells [5]; [18]) | pIC50 (tumor cells [5]; [19]) | pEC50 (tumor cells [1]; [20]) | pEC50 (tumor cells [1]; [21]) | pEC50 (tumor cells [1]; [22]) | pEC50 (tumor cells [3]; [23]) | pEC50 (tumor cells [3]; [24]) | Compound | pEC50 [4, 14] | pIC50 ([6]; Homo sapiens) | further results
7.00 to 8.00 | 7.00 to 8.00 | 7.00 to 8.00 | 7.00 to 8.00 | < 6.00 | 6.00 to 7.00 | 6.00 to 7.00 | 6.00 to 7.00 | < 6.00 | – | – | – | – | – | – | – | – | – | COc1ccc2oc(C(=O)c3cc(F)ccc3N3CCCCC3)cc2c1 [Example 96] | 6.00 to 7.00 | – | pIC50 (H460): 7.00 to 8.00; pIC50 (HeLa): 7.00 to 8.00
– | 6.00 to 7.00 | – | – | < 6.00 | – | 6.00 to 7.00 | – | < 6.00 | < 6.00 | 6.00 to 7.00 | 6.00 to 7.00 | 6.00 to 7.00 | < 6.00 | 6.00 to 7.00 | < 6.00 | 6.00 to 7.00 | 6.00 to 7.00 | CCOc1ccc(F)cc1C(=O)c1sc2ncccc2c1N [Example 113, 3-Amino-2-(2′-ethoxy-5-fluorobenzoyl)-thieno[2,3-b]pyridine] | – | < 6.00 | pEC50 [4, 25]: < 6.00
– | – | – | – | < 6.00 | – | > 8.00 | – | < 6.00 | 7.00 to 8.00 | 7.00 to 8.00 | 7.00 to 8.00 | 7.00 to 8.00 | 7.00 to 8.00 | > 8.00 | 7.00 to 8.00 | 7.00 to 8.00 | > 8.00 | CCOc1ccc(F)cc1C(=O)COc1ccc(Cl)cc1C#N [Example 143, ω-(4-Chloro-2-cyanophenoxy)-2-ethoxy-5-fluoroacetophenone] | – | 7.00 to 8.00 | pEC50 [4, 25]: > 8.00
< 6.00 | 6.00 to 7.00 | 6.00 to 7.00 | < 6.00 | 6.00 to 7.00 | < 6.00 | 6.00 to 7.00 | 6.00 to 7.00 | < 6.00 | – | – | – | 6.00 to 7.00 | – | – | – | – | – | COc1ccccc1C(=O)c1oc2ccc(Cl)cc2c1N [Ref B, reference compound] | < 6.00 | – | pIC50 (tumor cells [5]; [26]): 6.00 to 7.00; pIC50 (tumor cells [5]; [27]): 6.00 to 7.00; pIC50 (tumor cells [5]; [28]): 6.00 to 7.00; pIC50 [6]: 6.00 to 7.00
< 6.00 | < 6.00 | < 6.00 | < 6.00 | < 6.00 | < 6.00 | < 6.00 | < 6.00 | < 6.00 | – | – | – | < 6.00 | – | – | – | – | – | COc1ccc(OC)c(C(=O)c2oc3ccc(Cl)cc3c2O)c1 [Ref C, reference compound] | < 6.00 | – | pIC50 (tumor cells [5]; [26]): < 6.00; pIC50 (tumor cells [5]; [27]): < 6.00; pIC50 (tumor cells [5]; [28]): < 6.00; pIC50 [6]: < 6.00
< 6.00 | – | 6.00 to 7.00 | < 6.00 | < 6.00 | < 6.00 | 6.00 to 7.00 | 6.00 to 7.00 | < 6.00 | – | – | – | 6.00 to 7.00 | – | – | – | – | – | COc1ccc(OC)c(C(=O)COc2ccc(Cl)cc2C#N)c1 [Ref D, reference compound] | < 6.00 | – | pIC50 (tumor cells [5]; [26]): < 6.00; pIC50 (tumor cells [5]; [27]): 6.00 to 7.00; pIC50 (tumor cells [5]; [28]): 6.00 to 7.00; pIC50 [6]: < 6.00
– | < 6.00 | – | – | < 6.00 | – | < 6.00 | – | < 6.00 | < 6.00 | < 6.00 | < 6.00 | < 6.00 | < 6.00 | < 6.00 | < 6.00 | < 6.00 | < 6.00 | COc1ccc(OC)c(C(=O)c2oc3ccccc3c2O)c1 [Reference Example A, 2-(2,5-dimethoxybenzoyl)-3-hydroxybenzofuran, reference compound] | – | < 6.00 | pEC50 [4, 25]: < 6.00
